ChEMBL document CHEMBL1151629, “Lariciresinol derivatives from Turrea nilotica and Monechma ciliatum” (1984)

Tested on: KB
Experiment: Cytotoxicity against human KB cells
Assay type: functional
Conditions: read-out: ED50 (the source's name)

COc1cc(C[C@H]2CO[C@H](c3ccc(OC)c(OC)c3)[C@H]2CO)ccc1O
EC50: > 10 µg/mL
